Like-named read-outs stand apart in the source and are kept apart here.
How the values were obtained:
[1] = target: GDP-bound HRAS wild-type protein (Homo sapiens, UniProt P01112); assay: Binding to HRAS by surface plasmon resonance (SPR), Single Cycle Kinetics; settings: SPR; for HRAS/KRAS (ratio of KD value for HRAS to KD value for KRAS): GDP-bound HRAS wild-type protein vs GDP-bound KRAS wild-type protein; for HRAS/KRAS (KD ratio): ratio of KD for GDP-bound HRAS wild-type protein to KD for KRAS
Sequence of GDP-bound HRAS wild-type protein (P01112 whole entry): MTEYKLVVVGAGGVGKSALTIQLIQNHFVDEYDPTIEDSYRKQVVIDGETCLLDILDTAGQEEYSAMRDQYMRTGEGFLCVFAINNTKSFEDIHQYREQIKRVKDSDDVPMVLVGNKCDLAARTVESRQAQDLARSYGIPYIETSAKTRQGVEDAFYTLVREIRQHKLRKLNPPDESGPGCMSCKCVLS

[2] = test system: human lung cancer strain NCI-H441;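 note: cell proliferation inhibition after four days measured by CellTiter-Glo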
[3] = target: GDP-bound NRAS wild-type protein (Homo sapiens, UniProt P01111); assay: Binding to NRAS by surface plasmon resonance (SPR), Single Cycle Kinetics; settings: SPR; for NRAS/KRAS (ratio of KD value for NRAS to KD value for KRAS): GDP-bound NRAS wild-type protein vs GDP-bound KRAS wild-type protein; for NRAS/KRAS (KD ratio): ratio of KD for GDP-bound NRAS wild-type protein to KD for KRAS
Sequence of GDP-bound NRAS wild-type protein (P01111 whole entry): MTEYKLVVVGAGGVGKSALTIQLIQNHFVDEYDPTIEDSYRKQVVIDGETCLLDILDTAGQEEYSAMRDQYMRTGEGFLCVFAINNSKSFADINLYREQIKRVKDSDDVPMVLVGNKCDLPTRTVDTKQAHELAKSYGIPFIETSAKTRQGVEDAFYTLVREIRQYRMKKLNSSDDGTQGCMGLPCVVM

[4] = read-out: NCI-H441 IC50, NCI-H441 cell proliferation, 4 days, CellTiter-Glo

Compound | HRAS/KRAS (ratio of KD value for HRAS to KD value for KRAS) [1] | IC50 [2] | NRAS/KRAS (ratio of KD value for NRAS to KD value for KRAS) [3] | HRAS/KRAS (ratio of KD value for HRAS to KD value for KRAS) ([1]; KD ratio class) | NRAS/KRAS (ratio of KD value for NRAS to KD value for KRAS) ([3]; KD ratio class) | HRAS/KRAS (KD ratio) [1] | IC50 [2, 4] | NRAS/KRAS (KD ratio) [3]
CCO[C@@H]1C[C@H]2C(=O)NC3(CCC3)C(=O)N(C)[C@@H](C3CCCC3)C(=O)N(C)[C@H](C(=O)N(C)C)CC(=O)N(C)[C@@H](Cc3ccccc3C)C(=O)N[C@@H]([C@@H](C)CC)C(=O)N(C)CC(=O)N(C)[C@H]3CCCCCN(C3=O)[C@@H](Cc3ccc(C(F)(F)F)cc3)C(=O)N(C)CC(=O)N[C@@H](CCc3cc(F)c(C(F)(F)F)c(F)c3)C(=O)N2C1 [PP0941] | B (a compound having 3 or more and less than 10 is denoted as B) | 63.9 nM | B (a compound having 3 or more and less than 10 is denoted as B) | – | – | – | – | –
CC[C@H](C)[C@@H]1NC(=O)[C@H](CC(C)C)N(C)C(=O)C[C@@H](C(=O)N2CCOCC2)N(CC)C(=O)[C@H](C2CCCC2)N(C)C(=O)C2(CCC2)NC(=O)[C@@H]2CC(F)(F)CN2C(=O)[C@H](CCc2cc(F)c(C(F)(F)F)c(F)c2)NC(=O)CN(C)C(=O)[C@H](Cc2ccc(C(F)(F)F)cc2)N2CCCCC[C@@H](C2=O)N(C)C(=O)CN(C)C1=O [PP0954] | A (a compound having 10 or more and less than 20 is denoted as A) | 438 nM | A (a compound having 10 or more and less than 20 is denoted as A) | – | – | – | – | –
CCO[C@@H]1C[C@H]2C(=O)NC(C)(C)C(=O)N(C)[C@@H](C3CCCC3)C(=O)N(CC)[C@H](C(=O)N3CCOCC3)CC(=O)N(C)[C@@H](CC(C)C)C(=O)N[C@@H]([C@@H](C)CC)C(=O)N(C)CC(=O)N(C)[C@H]3CCCCCN(C3=O)[C@@H](Cc3ccc(C(F)(F)F)cc3)C(=O)N(C)CC(=O)N[C@@H](CCc3cc(F)c(C(F)(F)F)c(F)c3)C(=O)N2C1 [PP0958] | B (a compound having 3 or more and less than 10 is denoted as B) | 1040 nM | B (a compound having 3 or more and less than 10 is denoted as B) | – | – | – | – | –
CC[C@H](C)[C@@H]1NC(=O)[C@H](CC)N(C)C(=O)C[C@@H](C(=O)N2CCOCC2)N(C)C(=O)[C@H](C2CCCC2)N(C)C(=O)C2(CCCC2)NC(=O)[C@@H]2CCCN2C(=O)[C@H](CCc2ccc(C(F)(F)F)c(Cl)c2)NC(=O)CN(C)C(=O)[C@H](Cc2ccc(F)cc2)N2CCCCC[C@@H](C2=O)N(C)C(=O)CN(C)C1=O [PP0959] | B (a compound having 3 or more and less than 10 is denoted as B) | 156 nM | B (a compound having 3 or more and less than 10 is denoted as B) | – | – | – | – | –
CC[C@H](C)[C@@H]1NC(=O)[C@H](Cc2ccccc2)N(C)C(=O)C[C@@H](C(=O)N2CCOCC2)N(C)C(=O)[C@H](C2CCCC2)N(C)C(=O)C2(CCCC2)NC(=O)[C@@H]2CCCN2C(=O)[C@H](CCc2ccc(C(F)(F)F)c(Cl)c2)NC(=O)CN(C)C(=O)[C@H](Cc2ccc(F)cc2)N2CCCCC[C@@H](C2=O)N(C)C(=O)CN(C)C1=O [PP0961] | B (a compound having 3 or more and less than 10 is denoted as B) | 53.6 nM | B (a compound having 3 or more and less than 10 is denoted as B) | – | – | – | – | –
CC[C@H](C)[C@@H]1NC(=O)[C@H](Cc2cccc(F)c2)N(C)C(=O)C[C@@H](C(=O)N2CCOCC2)N(C)C(=O)[C@H](C2CCCC2)N(C)C(=O)C2(CCCC2)NC(=O)[C@@H]2CCCN2C(=O)[C@H](CCc2ccc(C(F)(F)F)c(Cl)c2)NC(=O)CN(C)C(=O)[C@H](Cc2ccc(F)cc2)N2CCCCC[C@@H](C2=O)N(C)C(=O)CN(C)C1=O [PP0962] | B (a compound having 3 or more and less than 10 is denoted as B) | 83.9 nM | B (a compound having 3 or more and less than 10 is denoted as B) | – | – | – | – | –
CC[C@H](C)[C@@H]1NC(=O)[C@H](Cc2cccc(Cl)c2)N(C)C(=O)C[C@@H](C(=O)N2CCOCC2)N(C)C(=O)[C@H](C2CCCC2)N(C)C(=O)C2(CCCC2)NC(=O)[C@@H]2CCCN2C(=O)[C@H](CCc2ccc(C(F)(F)F)c(Cl)c2)NC(=O)CN(C)C(=O)[C@H](Cc2ccc(F)cc2)N2CCCCC[C@@H](C2=O)N(C)C(=O)CN(C)C1=O [PP0963] | B (a compound having 3 or more and less than 10 is denoted as B) | 100 nM | B (a compound having 3 or more and less than 10 is denoted as B) | – | – | – | – | –
CC[C@H](C)[C@@H]1NC(=O)[C@H](CC(C)C)N(C)C(=O)C[C@@H](C(=O)N2CCOCC2)N(C)C(=O)[C@H](C2CCCC2)N(C)C(=O)C2(CCC2)NC(=O)[C@@H]2[C@@H](OCC3CCCC3)CCN2C(=O)[C@H](CCc2cc(F)c(C(F)(F)F)c(F)c2)NC(=O)CN(C)C(=O)[C@H](Cc2ccc(C(F)(F)F)cc2)N2CCCCC[C@@H](C2=O)N(C)C(=O)CN(C)C1=O [PP1011] | B (a compound having 3 or more and less than 10 is denoted as B) | 314 nM | A (a compound having 10 or more and less than 20 is denoted as A) | – | – | – | – | –
CCO[C@@H]1C[C@H]2C(=O)NC3(CCC3)C(=O)N(C)[C@@H](C3CCCC3)C(=O)N(C)[C@H](C(=O)N(C)C)CC(=O)N(CC)[C@@H](CC(C)C)C(=O)N[C@@H]([C@@H](C)CC)C(=O)N(C)CC(=O)N(C)[C@H]3CC(C)=CCN(C3=O)[C@@H](Cc3ccc(C(F)(F)F)cc3)C(=O)N(C)CC(=O)N[C@@H](CCc3cc(F)c(C(F)(F)F)c(F)c3)C(=O)N2C1 [PP1037] | C (A compound having a KD ratio of 0.1 or more and less than 3 is denoted as C) | 296 nM | C (A compound having a KD ratio of 0.1 or more and less than 3 is denoted as C) | – | – | – | – | –
CCO[C@@H]1C[C@H]2C(=O)NC3(CCC3)C(=O)N(C)[C@@H](C3CCCC3)C(=O)N(C)[C@H](C(=O)N(C)C)CC(=O)N(CC)[C@@H](CC(C)C)C(=O)N[C@@H]([C@@H](C)CC)C(=O)N(C)CC(=O)N(C)[C@H]3CC(C)=C(C)CN(C3=O)[C@@H](Cc3ccc(C(F)(F)F)cc3)C(=O)N(C)CC(=O)N[C@@H](CCc3cc(F)c(C(F)(F)F)c(F)c3)C(=O)N2C1 [PP1051] | C (A compound having a KD ratio of 0.1 or more and less than 3 is denoted as C) | 286 nM | C (A compound having a KD ratio of 0.1 or more and less than 3 is denoted as C) | – | – | – | – | –
CCO[C@@H]1C[C@H]2C(=O)NC3(CCC3)C(=O)N(C)[C@@H](C3CCCC3)C(=O)N(C)[C@H](C(=O)N3CCOCC3)CC(=O)N(C)[C@@H](Cc3ccccc3)C(=O)N[C@@H]([C@@H](C)CC)C(=O)N(C)CC(=O)N(C)[C@H]3CCCCCN(C3=O)[C@@H](Cc3ccc(F)cc3)C(=O)N(C)CC(=O)N[C@@H](CCc3cc(F)c(C(F)(F)F)c(F)c3)C(=O)N2C1 [PP1181] | B (a compound having 3 or more and less than 10 is denoted as B) | 26.3 nM | B (a compound having 3 or more and less than 10 is denoted as B) | – | – | – | – | –
CCO[C@@H]1C[C@H]2C(=O)NC3(CCC3)C(=O)N(C)[C@@H](C3CCCC3)C(=O)N(C)[C@H](C(=O)N3CCCC3)CC(=O)N(C)[C@@H](CC)C(=O)N[C@@H]([C@@H](C)CC)C(=O)N(C)CC(=O)N(C)[C@H]3C/C=C\CCN(C3=O)[C@@H](CC3CCC(F)(F)CC3)C(=O)N(C)CC(=O)N[C@@H](CCc3cc(F)c(C(F)(F)F)c(F)c3)C(=O)N2C1 [PP1442] | – | 48.3 nM | – | A (a compound having 10 or more and less than 20 is denoted as A) | A (a compound having 10 or more and less than 20 is denoted as A) | – | – | –
CCO[C@@H]1C[C@H]2C(=O)NC3(CCC3)C(=O)N(C)[C@@H](C3CCCC3)C(=O)N(C)[C@H](C(=O)N(CC)CC)CC(=O)N(C)[C@@H](CC(C)C)C(=O)N[C@@H]([C@@H](C)CC)C(=O)N(C)CC(=O)N(C)[C@H]3C/C=C\CCN(C3=O)[C@@H](Cc3ccc(C)cc3)C(=O)N(C)CC(=O)N[C@@H](CCc3ccc(C(F)(F)F)c(OC)c3)C(=O)N2C1 [PP1851] | – | – | – | – | – | A (a compound having 10 or more and less than 20 is denoted as A) | 165 nM | A (a compound having 10 or more and less than 20 is denoted as A)
CCO[C@@H]1C[C@H]2C(=O)NC3(CCC3)C(=O)N(C)[C@@H](C3CCCC3)C(=O)N(C)[C@H](C(=O)N(CC)CC)CC(=O)N(C)[C@@H](CC(C)C)C(=O)N[C@@H]([C@@H](C)CC)C(=O)N(C)CC(=O)N(C)[C@H]3C/C=C\CCN(C3=O)[C@@H](Cc3ccc(C)cc3)C(=O)N(C)CC(=O)N[C@@H](CCc3ccc(C(F)(F)F)c(OC)c3)C(=O)N2C1 [PP1887] | – | – | – | – | – | B (a compound having 3 or more and less than 10 is denoted as B) | 19.2 nM | A (a compound having 10 or more and less than 20 is denoted as A)
CCC[C@H]1C(=O)N[C@@H]([C@@H](C)CC)C(=O)N(C)CC(=O)N(C)[C@H]2C/C=C\CCN(C2=O)[C@@H](Cc2ccc(C)cc2)C(=O)N(C)CC(=O)N[C@@H](CCc2cc(F)c(C(F)(F)F)c(F)c2)C(=O)N2C[C@H](OCC)C[C@H]2C(=O)NC2(CC(C)(C)C2)C(=O)N(C)[C@@H](C(CC)CC)C(=O)N(C)[C@H](C(=O)N(C)C)CC(=O)N1C [PP2064] | A (a compound having 10 or more and less than 20 is denoted as A) | 13.6 nM | A (a compound having 10 or more and less than 20 is denoted as A) | – | – | – | – | –
